Where two headings read alike, the source gives them in different places. Values belong to the sequence of their own block, whether it stands above or below them. Ends that are not written are not given here.
Legend:
DQB1*0301 = DQB1*0301 (Homo sapiens, UniProt P01909+P01920); assay: Class II peptide-binding assay DQB1*0301; conditions: IFNb 15-mer peptides, Table 5D
DRB4*0101 = biological target: T1, DRB4*0101 (Homo sapiens, UniProt P01903+P13762, G164S); assay: Class II peptide-binding assay DRB4*0101 (DRw53)
T1 construct: expressed in transfected cells; host or cells: transfected fibroblasts L257.6

DRB5*0101 = biological target: T2, DRB5*0101 (Homo sapiens, UniProt P01903+Q30154); assay: Class II peptide-binding assay DRB5*0101 (DR2w2a)
T2 construct: Epstein-Barr virus (EBV) transformed homozygous cell lines were used as sources of human HLA Class II molecules; endogenous in cells; host or cells: GM3107 (EBV-transformed homozygous B cell line)

DRB3*0101 = biological target: T3, DRB3*0101 (Homo sapiens, UniProt P01903+P79483); assay: Class II peptide-binding assay DRB3*0101 (DR52a)
T3 construct: expressed in transfected cells; host or cells: transfected fibroblasts TR81.19

DRB1*1302 = biological target: T4, DRB1*1302 (Homo sapiens, UniProt P01903+P01911, A100E/A169T/K41T/L162R/M171V/P40S/Q125H/Q178H/Q39Y/Q99D/R42S/S66N/T262R/V115G/W38E/Y61H); assay: Class II peptide-binding assay DRB1*1302 (DR6w19)
T4 construct: Epstein-Barr virus (EBV) transformed homozygous cell lines were used as sources of human HLA Class II molecules; endogenous in cells; host or cells: HO301 / H0301 (EBV-transformed homozygous B cell line)
T4 sequence (P01903 26-254, other chains not shown): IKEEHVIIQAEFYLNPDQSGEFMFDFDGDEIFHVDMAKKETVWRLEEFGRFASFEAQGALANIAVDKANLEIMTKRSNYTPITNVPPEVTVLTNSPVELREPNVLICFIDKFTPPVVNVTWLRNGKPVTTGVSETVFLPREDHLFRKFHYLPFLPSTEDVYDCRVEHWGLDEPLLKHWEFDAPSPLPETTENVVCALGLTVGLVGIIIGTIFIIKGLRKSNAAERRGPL

DRB1*0401 = biological target: T5, DRB1*0401 (Homo sapiens, UniProt P01903+P01911, A100K/A169T/F76Y/I96L/K127E/L162R/M171V/N62H/P40V/Q125Y/R42H/S133A/S149N/S66Y/V115G/V209L/W38E); assay: Class II peptide-binding assay DRB1*0401 (DR4w4)
T5 construct: Epstein-Barr virus (EBV) transformed homozygous cell lines were used as sources of human HLA Class II molecules; endogenous in cells; host or cells: PREISS (EBV-transformed homozygous B cell line)

DRB1*0701 = biological target: T6, DRB1*0701 (Homo sapiens, UniProt P01903+P01911, A100R/A102G/A103Q/D57E/D86V/E43K/F76Y/K127E/L162R/M171V/P40G/Q125H/Q99D/R33Q/R42Y/R54Q/S133A/S66F/T210M/V115G/Y107V/Y59L/Y89S); assay: Class II peptide-binding assay DRB1*0701 (DR7)
T6 construct: Epstein-Barr virus (EBV) transformed homozygous cell lines were used as sources of human HLA Class II molecules; endogenous in cells; host or cells: PITOUT (EBV-transformed homozygous B cell line)

DRB1*0404 = biological target: T7, DRB1*0404 (Homo sapiens, UniProt P01903+P01911, A100R/A169T/F76Y/I96L/K127E/L162R/M171V/N62H/P40V/Q125Y/R42H/S133A/S149N/S66Y/V209L/W38E); assay: Class II peptide-binding assay DRB1*0404 (DR4w14)
T7 construct: Epstein-Barr virus (EBV) transformed homozygous cell lines were used as sources of human HLA Class II molecules; endogenous in cells; host or cells: BIN40 (EBV-transformed homozygous B cell line)

DRB1*0405 = biological target: T8, DRB1*0405 (Homo sapiens, UniProt P01903+P01911, A100R/A169T/D86S/F76Y/I96L/K127E/L162R/M171V/N62H/P40V/Q125Y/R42H/S133A/S149N/S66Y/V115G/V209L/W38E); assay: Class II peptide-binding assay DRB1*0405 (DR4w15)
T8 construct: Epstein-Barr virus (EBV) transformed homozygous cell lines were used as sources of human HLA Class II molecules; endogenous in cells; host or cells: KT3 (EBV-transformed homozygous B cell line)

DRB1*0901 = DRB1*0901 (Homo sapiens, UniProt P01903+P01911, A100R/A103E/D57H/D86V/F55Y/F60I/F76Y/I96F/K127E/L162R/M171V/P40D/Q125H/Q99R/R33Q/R42F/S133A/S66N/T210M/V115G/W38K/Y107V/Y59G/Y89S); assay: Class II peptide-binding assay DRB1*0901 (DR9)
DRB1*1101 = biological target: T9, DRB1*1101 (Homo sapiens, UniProt P01903+P01911, A100R/A169T/A87E/I96F/K41T/L162R/M171V/P40S/Q125H/Q178H/Q39Y/Q99D/R42S/S66Y/T262R/V115G/W38E); assay: Class II peptide-binding assay DRB1*1101 (DR5w11)
T9 construct: Epstein-Barr virus (EBV) transformed homozygous cell lines were used as sources of human HLA Class II molecules; endogenous in cells; host or cells: SWEIG (EBV-transformed homozygous B cell line)
T9 sequence (P01903 26-254, other chains not shown): as above

DRB1*0802 = biological target: T10, DRB1*0802 (Homo sapiens, UniProt P01903+P01911, A100R/A103L/A169T/F76Y/H45Y/I96F/K41T/L162R/M171V/P40S/Q125H/Q178H/Q39Y/Q99D/R218S/R42G/S66Y/V115G/W38E); assay: Class II peptide-binding assay DRB1*0802 (DR8w2)
T10 construct: Epstein-Barr virus (EBV) transformed homozygous cell lines were used as sources of human HLA Class II molecules; endogenous in cells; host or cells: OLL (EBV-transformed homozygous B cell line)

DRB1*0301 = biological target: T11, DRB1*0301 (Homo sapiens, UniProt P01903+P01911, A100K/A102G/A103R/A169T/F55Y/I96L/K41T/L162R/M171V/P40S/Q125H/Q178H/Q39Y/R42S/S66N/T106N/T262R/W38E/Y61H); assay: Class II peptide-binding assay DRB1*0301 (DR3)
T11 construct: Epstein-Barr virus (EBV) transformed homozygous cell lines were used as sources of human HLA Class II molecules; endogenous in cells; host or cells: MAT (EBV-transformed homozygous B cell line)
T11 sequence (P01903 26-254, other chains not shown): as above

DRB1*0101 = biological target: T12, DRB1*0101 (Homo sapiens, UniProt P01903+P01911, A100R/D57E/F55L/F60I/F76Y/I96L/L162R/M171V/P40L/Q125E/R42F/V115G/Y59C); assay: Class II peptide-binding assay DRB1*0101 (DR1)
T12 construct: Epstein-Barr virus (EBV) transformed homozygous cell lines were used as sources of human HLA Class II molecules; endogenous in cells; host or cells: LG2 (EBV-transformed homozygous B cell line)

[1] = known HLA-DR and DQ restricted epitopes, Table 6

DQB1*0301, sequence (P01920 33-261, other chains not shown): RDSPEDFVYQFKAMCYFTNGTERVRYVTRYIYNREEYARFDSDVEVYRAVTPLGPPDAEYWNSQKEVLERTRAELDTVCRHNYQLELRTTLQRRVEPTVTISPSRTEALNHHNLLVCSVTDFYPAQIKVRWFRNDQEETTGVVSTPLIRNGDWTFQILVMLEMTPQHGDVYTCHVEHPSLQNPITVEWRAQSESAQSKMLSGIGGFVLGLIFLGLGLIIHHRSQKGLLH

Sequence: DIEKKIAKMEKASSVFNVVNS
IC50 (DRB1*1302): > 15 µM
IC50 (DRB1*0401): 0.097 µM
IC50 (DRB1*0701): 2.49 µM
IC50 (DRB1*0404): 0.992 µM
IC50 (DRB1*0405): 3.39 µM
IC50 (DRB1*0901): > 20 µM
IC50 (DRB1*1101): 0.09 µM
IC50 (DRB4*0101): > 20 µM
IC50 (DRB5*0101): 1.81 µM
IC50 (DRB1*0802): > 20 µM
IC50 (DRB3*0101): > 20 µM

Sequence: DTGRKLFRVYSNFLR
IC50 (DRB1*1302): 0.0075 µM
IC50 (DRB1*0401): 0.046 µM
IC50 (DRB1*0405): 0.039 µM
IC50 (DRB1*0901): 0.161 µM
IC50 (DRB1*1101): 0.026 µM
IC50 (DRB4*0101): 1.13 µM
IC50 (DRB1*0301): 1.28 µM
IC50 (DRB5*0101): 0.012 µM
IC50 (DRB1*0101): 0.018 µM

Sequence: FNNFTVSFWLRVPKVSASHLEQY
IC50 (DRB1*1302; [1]): 6.37 µM
IC50 (DRB1*0401; [1]): 0.093 µM
IC50 (DRB1*0701; [1]): 0.057 µM
IC50 (DRB1*0404; [1]): 4.54 µM
IC50 (DRB1*1101; [1]): 0.0083 µM
IC50 (DRB4*0101): 1.68 µM
IC50 (DRB1*0301; [1]): > 20 µM
IC50 (DRB5*0101): 2.86 µM
IC50 (DRB1*0802): 0.581 µM
IC50 (DRB3*0101): 2.82 µM
IC50 (DRB1*0101): 0.417 µM

Sequence: KEDSHCAWTIVRVEI
IC50 (DQB1*0301): 4.1 µM

Sequence: QKEDAAVTIYEMLQN
IC50 (DQB1*0301): 0.515 µM

The next lines start with the values.

IC50 (DQB1*0301): 19.4 µM
IC50 (DRB4*0101; IFNb 15-mer peptides, Table 5D): 20.1 µM
IC50 (DRB5*0101; IFNb 15-mer peptides, Table 5D): 3.09 µM
IC50 (DRB3*0101; IFNb 15-mer peptides, Table 5D): 17 µM
Sequence: CLKDRRNFDIPEEIK

IC50 (DQB1*0301): 6.35 µM
Sequence: GRLEYCLKDRRNFDI

IC50 (DQB1*0301): 7.45 µM
Sequence: MSYNLLGFLQRSSNC
